Results reported in patent US20220347171A1, “TREATMENT OF PRURIGO NODULARIS” (TREVI THERAPEUTICS, INC., priority 2016, published 2022).
Counter-ions that a name gives are not always drawn.

Assays:
[1] = test system: prurigo nodularis patients; assay: Phase 2 open label extension study (TR03ext, Example 3), titrated 30 mg QD to 180 mg BID, up to 50 weeks: Worst itch NRS; format: in vivo, human; conditions: for Worst Itch NRS Visit Mean (SD): Baseline 7.6 (1.6)
Excerpt: This clinical study was a Phase 2 Open Label Extension Study (clinical study TR03ext) of the randomized, double-blind, 3-parallel arm, placebo controlled dose ranging study described in Example 2. All those subjects who were randomized, and then completed Example 2 study, were eligible to participate in the Extension Study.
The primary endpoint was a description of the overall incidence and nature of Treatment-Emergent AEs (TEAES) during weeks 5-50 of the study. Exploratory efficacy endpoints included Change from Baseline patient reported outcome measures of Worst itch NRS, itchy VRS and ItchyQoL, by Treatment Period study visit and Baseline NRS score. There was also an assessment of any potential skin lesion changes over time using the metrics of the PAS.
Of the 63 patients that were randomized to the study of Example 2, 36 subjects who enrolled into Extension Study entered the Treatment Period of the study and were exposed to nalbuphine HCl ER tablet administration and are the basis of the study safety population analysis.
Patients in Extension Study were titrated over a dose range of 30 mg QD to 180 mg BID based on tolerability. The selected dose range was based on Example 2 study whereby patients were titrated from a 30 mg QD dose either to 30 mg BID, 60 mg BID, 90 mg BID, 120 mg BID or a 180 mg BID dose. The highest dose proposed was 180 mg BID (360 mg daily dose), and was well below the highest recommended daily treatment of 160 mg IV (equivalent to 960 mg oral) for the current marketed parenteral administered product.
The study duration for each patient was up to 52 weeks, with up to 50 weeks on study drug. The Extension Study consisted of a Treatment Period (that was followed by a Washout Safety Follow-up Period) and an Observation Period. Patients either entered directly into a drug Treatment Period (NRS >5) or a no-drug Observation Period (NRS ≤5) based on their reported NRS scores on the first Visit (Visit 1a). For up to 12 Extended Screening weeks, patients in the no-drug Observation Period could have also transitioned into the drug Treatment Period if their NRS increased to NRS >5. All patients entering the Treatment Period, whether immediately upon study entry or following a period of time in the Observation Period, were titrated to a dose ranging between 30 mg up to 180 mg BID, the highest dose tested in Example 2.

[2] = test system: prurigo nodularis patients; assay: Example 2 trial: average itch intensity NRS score; format: in vivo, human; conditions: 180 mg BID; end of treatment; 95% CI −2.764, −0.134; P=0.031
Method: This clinical study was a double-blind, placebo-controlled trial in which prurigo nodularis patients were randomized in a 1:1:1 ratio to nalbuphine ER tablets to a target dose of 90 mg twice daily (BID), nalbuphine HCl ER tablets 180 mg BID, or placebo tablets BID. Use of nonsedating rescue antihistamine medications (non-first generation H1-antihistamines [Simons F E. Advances in H1-antihistamines. N Engl J Med. 2004; 351(21):2203-17.]) were allowed in the study but their use was recorded. Cleansing emollients were allowed for hygiene purposes provided there were no active substances (such as menthol or urea) contained in the lotion. A placebo comparator was chosen because there are no approved treatments for prurigo nodularis in the United States or Europe or an established standard of care that could serve as an active control.
(1) The proportion of patients with at least a 30% reduction in the 7-day average daily diary-reported NRS itch intensity from baseline to the evaluation visit (Week 10). (2) The proportion of patients with at least a 50% reduction in the 7-day average daily diary-reported NRS itch intensity from baseline to the evaluation visit (Week 10). […] (5) Prurigo nodularis skin lesions, as quantitatively measured by the Prurigo Activity Score (PAS) recorded at baseline and during evaluation visit (Week 10). […]

SMILES: Oc1ccc2c3c1OC1[C@@H](O)CC[C@@]4(O)[C@@H](C2)N(CC2CCC2)CC[C@]314 (stereo partly drawn) [Nalbuphine, 17-(cyclobutylmethyl)-4,5α-epoxymorphinian-3, 6α, 14-triol, hydrochloride]
- Worst Itch NRS Mean (SD) Change from Baseline ([1]; Study Week 3, N=34): −2.0 (2.2)
- Worst Itch NRS Visit Mean (SD) ([1]; Study Week 3, N=34): 5.7 (2.4)
- Worst Itch NRS Mean (SD) Change from Baseline ([1]; Study Week 5, N=33): −2.5 (2.2)
- Worst Itch NRS Visit Mean (SD) ([1]; Study Week 5, N=33): 5.2 (2.5)
- Worst Itch NRS Mean (SD) Change from Baseline ([1]; Study Week 9, N=30): −2.9 (2.2)
- Worst Itch NRS Visit Mean (SD) ([1]; Study Week 9, N=30): 4.6 (2.3)
- Worst Itch NRS Mean (SD) Change from Baseline ([1]; Study Week 13, N=25): −2.7 (1.8)
- Worst Itch NRS Visit Mean (SD) ([1]; Study Week 13, N=25): 4.8 (2.2)
- Worst Itch NRS Mean (SD) Change from Baseline ([1]; Study Week 17, N=25): −3.6 (2.6)
- Worst Itch NRS Visit Mean (SD) ([1]; Study Week 17, N=25): 3.8 (2.4)
- Worst Itch NRS Mean (SD) Change from Baseline ([1]; Study Week 21, N=22): −3.3 (2.4)
- Worst Itch NRS Visit Mean (SD) ([1]; Study Week 21, N=22): 4.1 (2.4)
- Worst Itch NRS Mean (SD) Change from Baseline ([1]; Study Week 26, N=21): −3.9 (2.2)
- Worst Itch NRS Visit Mean (SD) ([1]; Study Week 26, N=21): 3.4 (1.6)
- Worst Itch NRS Mean (SD) Change from Baseline ([1]; Study Week 30, N=20): −4.2 (2.3)
- Worst Itch NRS Visit Mean (SD) ([1]; Study Week 30, N=20): 3.2 (1.6)
- Worst Itch NRS Mean (SD) Change from Baseline ([1]; Study Week 34, N=18): −3.9 (2.1)
- Worst Itch NRS Visit Mean (SD) ([1]; Study Week 34, N=18): 3.3 (1.6)
- Worst Itch NRS Mean (SD) Change from Baseline ([1]; Study Week 38, N=17): −3.9 (1.7)
- Worst Itch NRS Visit Mean (SD) ([1]; Study Week 38, N=17): 3.2 (1.6)
- Worst Itch NRS Mean (SD) Change from Baseline ([1]; Study Week 42, N=17): −3.9 (1.4)
- Worst Itch NRS Visit Mean (SD) ([1]; Study Week 42, N=17): 3.2 (1.4)
- Worst Itch NRS Mean (SD) Change from Baseline ([1]; Study Week 46, N=17): −3.9 (1.3)
- Worst Itch NRS Visit Mean (SD) ([1]; Study Week 46, N=17): 3.2 (1.5)
- Worst Itch NRS Mean (SD) Change from Baseline ([1]; Study Week 50, N=15): −4.3 (1.3)
- Worst Itch NRS Visit Mean (SD) ([1]; Study Week 50, N=15): 2.9 (1.7)
- LS mean treatment difference in change from baseline average itch intensity NRS score versus placebo [2]: −1.45
